# US11666577B2 (National Institute of Biological Sciences, Beijing, priority 2018, dated 2023)
# Test system: HT-29 cells
# Assay: Necroptosis assay (TNF-α/Smac mimetic/z-VAD, TSZ-induced) in HT-29 cells
# Format: cell-based, human
# Conditions: Homo sapiens; Series 1 (Table 1) compounds 1-146; HT-29 cells, TNF-α/Smac mimetic/z-VAD, 24 hrs, cell viability by ATP level; read-out: Series 1 compound necroptosis activity
# Procedure: Methods: HT-29 cells were cultured in McCoy's 5 A culture medium (Invitrogen). On day one, HT-29 cells were plated in 96-well assay plates at density of 2,500-3,500 cells per well. On day two, necrosis were induced by adding 20 ng/ml TNF-α (T), 100 nM Smac mimetic (S), and […] z-VAD (Z). At the same time, 10 mM compound from a chemical library of ˜200,000 compounds was delivered into each well. After 24 hrs treatment, cell viability was determined by measuring ATP level using the Cell Titer-Glo Luminescent Cell Viability Assay kit. A CellTiter-Glo Assay (Promega) was performed according to the manufacturer's instructions. Luminescence was recorded with a PerkinElmer EnSpire Multimode Plate Reader. Survived cells were normalized to those cells treated with DMSO. RIPA-56 was used as a positive control for screening necroptosis inhibitors. Data are represented as mean±standard deviation of duplicates.
# In previous work, we performed a cell-based high-throughput screen to identify necroptosis inhibitors using a chemical library of ˜200,000 compounds and identified multiple compounds that protected human colorectal adenocarcinoma (HT-29) cells from TNF-α/Smac mimetic/Z-VAD-fmk (TSZ)-induced necroptosis.^[4]
# The anti-necroptosis potency of compounds 7-12 and 14-18 was evaluated in the HT-29 cell line; the EC50 values are shown in Table B.
# [a] Necroptosis was induced in HT-29 cells for 24 h; the EC50 values given here are the mean values of at least three independent analyses.
row,Compound,EC50
1,"CCCS(=O)(=O)c1nc2c(c(=O)n(C)c(=O)n2C)n1C [Compound 10, 1,3,7-trimethyl-8-(propylsulfonyl)-1H-purine-2,6(3H,7H)-dione]",1 to 100 µM
2,"COc1ccc(OC)c(Cn2c(=O)n(C)c(=O)c3c2nc(S(=O)(=O)Cc2cc(OC)ccc2OC)n3C)c1 [Compound 129, 3-(2,5-dimethoxybenzyl)-8-(2,5-dimethoxybenzylsulfonyl)-1,7-dimethyl-1H-purine-2,6(3H,7H)-dione]",1 to 100 µM
3,"Cn1c(=O)[nH]c2nc(S(C)(=O)=O)n(C)c2c1=O [Compound 99, 1,7-dimethyl-8-(methylsulfonyl)-1H-purine-2,6(3H,7H)-dione]",1 to 100 µM
4,"CCn1c(S(C)(=O)=O)nc2c1c(=O)n(C)c(=O)n2C [Compound 74, 7-ethyl-1,3-dimethyl-8-(methylsulfonyl)-1H-purine-2,6(3H,7H)-dione]",1 to 10 µM
5,"Cn1c(=O)c2c(nc(S(C)(=O)=O)n2C)n(Cc2ccccc2)c1=O [Compound 103, 3-benzyl-1,7-dimethyl-8-(methylsulfonyl)-1H-purine-2,6(3H,7H)-dione]",1 to 100 µM
6,"Cn1c(=O)c2c(nc(S(=O)(=O)CC3CC3)n2C)n(Cc2cccc(Cl)c2)c1=O [Compound 137, 3-(3-chlorobenzyl)-8-((cyclopropylmethyl)sulfonyl)-1,7-dimethyl-1H-purine-2,6(3H,7H)-dione]",1 to 100 µM
7,"COc1ccc(OC)c(CS(=O)(=O)c2nc3c(c(=O)n(C)c(=O)n3C)n2C)c1 [Compound 58, 8-(2,5-dimethoxybenzylsulfonyl)-1,3,7-trimethyl-1H-purine-2,6(3H,7H)-dione]",1 to 10 µM

# Same assay, conditions: Homo sapiens; Series 2 (Table 2) compounds; HT-29 necroptosis assay; read-out: Series 2 compound necroptosis activity
row,Compound,EC50
1,CCS(=O)(=O)c1nc2c(c(=O)n(C)c(=O)n2CC#Cc2cc(NC(=O)C3CC3)cc(NC(=O)C3CC3)c2)n1C [Compound 50],0.001 to 0.1 µM
2,Cn1c(=O)c2c(nc(S(C)(=O)=O)n2C)n(CC#Cc2cc(NC(=O)CN3CCOCC3)cc(NC(=O)C3CC3)c2)c1=O [Compound 36],0.001 to 0.1 µM
3,Cn1c(=O)c2c(nc(S(=O)(=O)CC3CC3)n2C)n(CC#Cc2cccc(NCCN3CCOCC3)c2)c1=O [Compound 19],0.001 to 0.1 µM
4,Cn1c(=O)c2c(nc(S(C)(=O)=O)n2C)n(CC#Cc2cccc(NC(=O)CN3CCOCC3)c2)c1=O [Compound 17],0.001 to 0.1 µM
5,Cn1c(=O)c2c(nc3n2CCS3(=O)=O)n(CC#Cc2cccc(NCCN3CCOCC3)c2)c1=O [Compound 67],0.001 to 0.1 µM
6,COCCOc1cc(C#CCn2c(=O)n(C)c(=O)c3c2nc([S+](C)[O-])n3C)cc(NC(=O)C2CC2)c1 (stereo not drawn) [Compound 54],0.001 to 0.1 µM

# Same assay, conditions: Series 1 (Table 1) compounds 1-146; HT-29 cells, TNF-α/Smac mimetic/z-VAD, 24 hrs, cell viability by ATP level; read-out: Series 1 compound necroptosis activity
row,Compound,EC50
1,"COc1ccc(CS(=O)(=O)c2nc3c(c(=O)n(C)c(=O)n3C)n2C)cc1 [Compound 37, 8-(4-methoxybenzylsulfonyl)-1,3,7-trimethyl-1H-purine-2,6(3H,7H)-dione]",1 to 1000 µM
2,"CCNC(=O)C#CCn1c(=O)n(C)c(=O)c2c1nc(S(C)(=O)=O)n2C [Compound 132, 4-(1,7-dimethyl-8-(methylsulfonyl)-2,6-dioxo-1H-purin-3(2H,6H,7H)-yl)-N-ethylbut-2-ynamide]",1 to 1000 µM
3,"Cn1c(=O)c2c(nc(S(=O)(=O)Cc3ccccc3[N+](=O)[O-])n2C)n(C)c1=O [Compound 38, 1,3,7-trimethyl-8-(2-nitrobenzylsulfonyl)-1H-purine-2,6(3H,7H)-dione]",1 to 1000 µM
4,"Cc1c2c(=O)n(C)c(=O)n(C)c2nn1S(C)(=O)=O [Compound 145, 3,5,7-trimethyl-2-(methylsulfonyl)-2H-pyrazolo[3,4-d]pyrimidine-4,6(5H,7H)-dione]",1 to 1000 µM
5,"Cn1c(=O)c2c(nc(S(C)(=O)=O)n2CC#N)n(C)c1=O [Compound 84, 2-(1,3-dimethyl-8-(methylsulfonyl)-2,6-dioxo-2,3-dihydro-1H-purin-7(6H)-yl)acetonitrile]",1 to 1000 µM
6,"CCn1c(SCC2CC2)nc2c1c(=O)n(C)c(=O)n2C [Compound 81, 8-(cyclopropylmethylthio)-7-ethyl-1,3-dimethyl-1H-purine-2,6(3H,7H)-dione]",1 to 1000 µM
7,"Cn1c(=O)c2c(nc(S(=O)(=O)Cc3ccccc3Cl)n2C)n(C)c1=O [Compound 29, 8-(2-chlorobenzylsulfonyl)-1,3,7-trimethyl-1H-purine-2,6(3H,7H)-dione]",1 to 1000 µM
8,"Cn1c(=O)c2c(nc(S(=O)(=O)Cc3cccc(F)c3)n2C)n(C)c1=O [Compound 27, 8-(3-fluorobenzylsulfonyl)-1,3,7-trimethyl-1H-purine-2,6(3H,7H)-dione]",1 to 1000 µM
9,"Cn1c(=O)c2c(nc(S(=O)(=O)Cc3cccc4ccccc34)n2C)n(C)c1=O [Compound 24, 1,3,7-trimethyl-8-(naphthalen-1-ylmethylsulfonyl)-1H-purine-2,6(3H,7H)-dione]",1 to 1000 µM
10,"Cn1c(=O)c2c(nc(S(=O)(=O)CCc3ccccc3)n2C)n(C)c1=O [Compound 22, 1,3,7-trimethyl-8-(phenethylsulfonyl)-1H-purine-2,6(3H,7H)-dione]",1 to 1000 µM
11,"Cn1c(=O)c2c(nc(S(=O)(=O)Cc3ccccc3Br)n2C)n(C)c1=O [Compound 32, 8-(2-bromobenzylsulfonyl)-1,3,7-trimethyl-1H-purine-2,6(3H,7H)-dione]",1 to 1000 µM
12,"Cn1c(=O)c2c(nc([S+](C)[O-])n2C)n(C)c1=O (stereo not drawn) [Compound 3, 1,3,7-trimethyl-8-(methylsulfinyl)-1H-purine-2,6(3H,7H)-dione]",1 to 1000 µM
13,"COc1ccccc1CS(=O)(=O)c1nc2c(c(=O)n(C)c(=O)n2C)n1C [Compound 35, 8-(2-methoxybenzylsulfonyl)-1,3,7-trimethyl-1H-purine-2,6(3H,7H)-dione]",1 to 1000 µM
14,"Cn1c(=O)c2c(nc(S(=O)(=O)Cc3ccc[n+]([O-])c3)n2C)n(C)c1=O [Compound 51, 3-((1,3,7-trimethyl-2,6-dioxo-2,3,6,7-tetrahydro-1H-purin-8-ylsulfonyl)methyl)pyridine 1-oxide]",1 to 1000 µM

# Same assay, conditions: Series 1 (Table 1) compounds 147-176; activity extrapolated; read-out: Series 1 compound necroptosis activity (extrapolated)
row,Compound,EC50
1,Cn1c(=O)c2c(nc(S(=O)(=O)CCN)n2C)n(CC#Cc2cccc(O)c2)c1=O [Compound 150],1 to 1000 µM
2,CN(C)S(=O)(=O)c1nc2c(c(=O)n(C)c(=O)n2CC#Cc2cccc(O)c2)n1C [Compound 158],1 to 1000 µM
3,Cn1c(=O)c2c(nc(S(=O)(=O)CCO)n2C)n(CC#Cc2cccc(O)c2)c1=O [Compound 147],1 to 1000 µM
4,Cn1c(=O)c2c(nc(S(C)(=O)=O)n2C)n(CC#Cc2cc(N)cc(Br)c2)c1=O [Compound 168],1 to 1000 µM
5,Cn1c(=O)c2c(nc(S(N)(=O)=O)n2C)n(CC#Cc2cccc(O)c2)c1=O [Compound 156],1 to 1000 µM
6,COCCOCCS(=O)(=O)c1nc2c(c(=O)n(C)c(=O)n2CC#Cc2cccc(O)c2)n1C [Compound 154],1 to 1000 µM
7,Cn1c(=O)c2c(nc3n2CCS3(=O)=O)n(CC#Cc2cccc(O)c2)c1=O [Compound 148],1 to 1000 µM

# Same assay, conditions: Series 1 (Table 1) compounds; HT-29 cells, TNF-α/Smac mimetic/z-VAD, 24 hrs, cell viability by ATP level; read-out: Series 1 compound necroptosis activity
row,Compound,EC50
1,"Cn1c(=O)c2c(nc(S(=O)(=O)CC3CC3)n2C)n(CC#Cc2cccc(N)c2)c1=O [Compound 124, 3-(3-(3-aminophenyl)prop-2-yn-1-yl)-8-((cyclopropylmethyl)sulfonyl)-1,7-dimethyl-3,7-dihydro-1H-purine-2,6-dione]",0.001 to 1 µM
2,"Cn1c(=O)c2c(nc(S(=O)(=O)CC3CC3)n2C)n(CC#Cc2ccc(Cl)cc2)c1=O [Compound 121, 3-(3-(4-chlorophenyl)prop-2-yn-1-yl)-8-((cyclopropylmethyl)sulfonyl)-1,7-dimethyl-3,7-dihydro-1H-purine-2,6-dione]",0.001 to 1 µM
